From article PMC11210122, “Synthesis, biological evaluation, and molecular docking of novel 1,3,4-substituted-thiadiazole derivatives as potential anticancer agent” (BMC Chemistry, 2024) come the findings set out here.

SMILES strings stand for the structures.

One experiment has as its system human breast carcinoma cell line (MCF-7). The experiment in a line: MTT anti-proliferative assay, MCF-7. Conditions: MCF7, MCF-7, MTT, mean ± SD of three independent experiments, read-out: Growth inhibition, GI50. It counts as cell-based. The procedure: (§1) Methods for in vitro anti-proliferative assay [Cell lines]: In the current investigation, hepatocellular carcinoma cell lines (HEPG-2), human lung carcinoma (A549) and human breast carcinoma cell line (MCF-7) and pseudo-normal human embryonic liver cellline (L02) were used for antiproliferative activity, the cell lines were obtained from NCL, Pune. The growth medium used is the DMEM (Dulbecco's modified Eagle's growth medium) having 10% FBS (fetal bovine serum), 10 µg/ml of insulin (Sigma) and 1% penicillin/streptomycin. The used reagents and chemicals were purchased from Sigma or Invitrogen. 100 µl of each compound was added to cells with density of 1.2 – 1.8 × 10,000 cells/well containing 100 µl growth medium in a 96-well plate for 24 h previous to performing the MTT assay.
(§2) MTT assay: MTT (3-[4,5-dimethylthiazole-2-yl]-2,5-diphenyltetrazolium bromide) was used to determine the anti-proliferative activity. Cells were incubated in a moist environment for 24 hours at 37℃. The cells were then treated with various concentrations of the studied substances (0.01, 0.1, 1.0, 10, 50, 100 µM). The media was removed, and the cells were treated for 2 hours with a 5% MTT ([…]) solution/well, allowing the dye to metabolize to colored-insoluble formazan crystals. The remaining solution was discarded and acidified isopropanol was then added for around 30 minutes to dissolve the formazan crystals, which were encased in aluminum foil at room temperature. The absorbance of each well was measured at 450 nm using an Elisa reader. The cell viability was expressed as a percentage of control, and the GI50 was calculated using Graph Pad Prism program (Graph Pad software Inc, CA).
For orientation: GI50 means the concentration giving 50% growth inhibition. As for `O=C(CCl)Nc1nc(-c2cc3ccccc3oc2=O)cs1` [4k], the GI50 was 26.4 ± 0.28 µM.

In the case of `CCOC(=O)c1sc(NC(=O)CCl)nc1C` [4l], the GI50 was 37.26 ± 0.37 µM.

Consider `Nc1nnc(SCC(=O)Nc2nc(-c3ccccc3)cs2)s1` [8a, 2-(5-amino-1,3,4-thiadiazol-2-ylthio)-N-(4-phenylthiazol-2-yl) acetamide], for which the GI50 was 34.87 ± 0.31 µM.

With `Nc1nnc(SCC(=O)Nc2nc(-c3ccc(Br)cc3)cs2)s1` [8b, 2-(5-amino-1,3,4-thiadiazol-2-ylthio)-N-(4-(4-bromophenyl)thiazol-2-yl) acetamide], the GI50 worked out at 4.07 ± 0.19 µM.

Consider `Nc1nnc(SCC(=O)Nc2nc(-c3ccc(Cl)cc3)cs2)s1` [8c, 2-(5-amino-1,3,4-thiadiazol-2-ylthio)-N-(4-(4-chlorophenyl)thiazol-2-yl) acetamide], for which the GI50 was 20.7 ± 0.36 µM.

For `COc1ccc(-c2csc(NC(=O)CSc3nnc(N)s3)n2)cc1` [8d, 2-(5-amino-1,3,4-thiadiazol-2-ylthio)-N-(4-(4-methoxyphenyl)thiazol-2-yl) acetamide], the GI50 was determined as 2.98 ± 0.15 µM.

`Cc1ccc(-c2csc(NC(=O)CSc3nnc(N)s3)n2)cc1` [8e, 2-(5-amino-1,3,4-thiadiazol-2-ylthio)-N-(4-p-tolylthiazol-2-yl) acetamide]: the GI50 stood at 28 ± 0.34 µM.

Regarding `Nc1nnc(SCC(=O)Nc2nc(-c3ccc([N+](=O)[O-])cc3)cs2)s1` [8f, 2-(5-amino-1,3,4-thiadiazol-2-ylthio)-N-(4-(4-nitrophenyl)thiazol-2-yl) acetamide], the GI50 turned out to be 3.71 ± 0.26 µM.

In the case of `COc1cccc2c1C(=O)c1c(O)c3c(c(O)c1C2=O)C[C@@](O)(C(=O)CO)C[C@@H]3O[C@H]1C[C@H](N)[C@H](O)[C@H](C)O1` [doxorubicin, reference compound], the GI50 is 4.15 ± 0.18 µM.

Another experiment deals with pseudo-normal human embryonic liver cell line (L02). The experiment in a line: MTT assay, pseudo-normal L02 cells. It counts as cell-based. The conditions noted are these: L02, 100 µM, mean ± SD of three independent experiments. The procedure: as §1, §2
For orientation: Formazan colour is commonly taken as a measure of viable cells.
As a reminder, the inhibition is the change of the read-out against control, counted positive when it falls. Lower therefore signals a weak effect. In turn, `O=C(CCl)Nc1nc(-c2ccc(Br)cc2)cs1` [4b] registered an inhibition at 100 µM of 17.8 ± 0.51%.

On to `O=C(CCl)Nc1nc(-c2cc3ccccc3oc2=O)cs1` [4k], for which the inhibition at 100 µM is 23 ± 0.35%.

Regarding `CCOC(=O)c1sc(NC(=O)CCl)nc1C` [4l], the inhibition at 100 µM came out at 26 ± 0.47%.

In turn, `Nc1nnc(SCC(=O)Nc2nc(-c3ccccc3)cs2)s1` [8a, 2-(5-amino-1,3,4-thiadiazol-2-ylthio)-N-(4-phenylthiazol-2-yl) acetamide] displayed an inhibition at 100 µM of 22.6 ± 0.42%.

In turn, `Nc1nnc(SCC(=O)Nc2nc(-c3ccc(Br)cc3)cs2)s1` [8b, 2-(5-amino-1,3,4-thiadiazol-2-ylthio)-N-(4-(4-bromophenyl)thiazol-2-yl) acetamide] registered an inhibition at 100 µM of 15.8 ± 0.28%.

`Nc1nnc(SCC(=O)Nc2nc(-c3ccc(Cl)cc3)cs2)s1` [8c, 2-(5-amino-1,3,4-thiadiazol-2-ylthio)-N-(4-(4-chlorophenyl)thiazol-2-yl) acetamide] returned an inhibition at 100 µM of 18.2 ± 0.22%.

`COc1ccc(-c2csc(NC(=O)CSc3nnc(N)s3)n2)cc1` [8d, 2-(5-amino-1,3,4-thiadiazol-2-ylthio)-N-(4-(4-methoxyphenyl)thiazol-2-yl) acetamide] registered an inhibition at 100 µM of 21.8 ± 0.38%.

`Cc1ccc(-c2csc(NC(=O)CSc3nnc(N)s3)n2)cc1` [8e, 2-(5-amino-1,3,4-thiadiazol-2-ylthio)-N-(4-p-tolylthiazol-2-yl) acetamide] came in with an inhibition at 100 µM of 23.8 ± 0.42%.

`Nc1nnc(SCC(=O)Nc2nc(-c3ccc([N+](=O)[O-])cc3)cs2)s1` [8f, 2-(5-amino-1,3,4-thiadiazol-2-ylthio)-N-(4-(4-nitrophenyl)thiazol-2-yl) acetamide] returned an inhibition at 100 µM of 20.6 ± 0.37%.

In turn, `COc1cccc2c1C(=O)c1c(O)c3c(c(O)c1C2=O)C[C@@](O)(C(=O)CO)C[C@@H]3O[C@H]1C[C@H](N)[C@H](O)[C@H](C)O1` [doxorubicin, reference compound] gave an inhibition at 100 µM of 82.2 ± 1.26%.

Another experiment has as its system breast carcinoma cell line (MCF-7). As to the kind of experiment: Annexin V-FITC/PI assay (flow cytometry). It counts as cell-based, human. The conditions noted are these: MCF-7, 5 μM, 24 h. On the procedure: The early stages of apoptosis were monitored by Annexin V-FITC (apoptotic cell marker) and PI (necrotic cell marker) double staining. The staining method was used according to the Annexin FITC/PI staining kit (Invitrogen™, Thermo Fisher Scientific Inc.). Annexin V- FITC/PI assay was performed to inspect the extent of programmed cell death (Fig. 3, apoptosis) by the compounds 4c, 4j and 8f on breast carcinoma cell line (MCF-7). The cells were treated with increasing concentrations (5–10 μM) for 24 h and analyzed by flow cytometry.
Annexin V-FITC/PI Assay: The early stages of apoptosis were monitored by Annexin V-FITC (apoptotic cell marker) and PI (necrotic cell marker) double staining. The staining method was used according to the Annexin FITC/PI staining kit (Invitrogen™, Thermo Fisher Scientific Inc.). Briefly, cells were washed in PBS twice and resuspended in 500 μl of PBS plus Annexin V-FITC and PI. For each sample at least 1×10^4 cells should be analysed using an FACS cytometer.
On the technique in general: A flow cytometer gives signals particle by particle.
`Nc1nnc(SCC(=O)Nc2nc(-c3ccc([N+](=O)[O-])cc3)cs2)s1` [8f, 2-(5-amino-1,3,4-thiadiazol-2-ylthio)-N-(4-(4-nitrophenyl)thiazol-2-yl) acetamide]: the Q1 necrotic cells is 16.99%, the “Q2 late apoptotic cells” value worked out at 14.62% and the Q3 live cells came to 59.08%.

Staying with this experiment, now noted: MCF-7, 10 μM, 24 h.
With `Nc1nnc(SCC(=O)Nc2nc(-c3ccc([N+](=O)[O-])cc3)cs2)s1` [8f, 2-(5-amino-1,3,4-thiadiazol-2-ylthio)-N-(4-(4-nitrophenyl)thiazol-2-yl) acetamide], the Q1 necrotic cells was determined as 12.44%, the “Q2 late apoptotic cells” value turned out to be 37.15% and the Q3 live cells is recorded as 46.14%.

Another experiment deals with hepatocellular carcinoma cell lines (HEPG-2). As to the kind of experiment: MTT anti-proliferative assay, HepG-2. It counts as cell-based, human. Conditions: HepG-2, MTT, mean ± SD of three independent experiments; read-out: Growth inhibition, GI50. On the procedure:
as §1, §2
Consider `O=C(CCl)Nc1nc(-c2ccc(Br)cc2)cs1` [4b], for which the GI50 turned out to be 3.62 ± 0.14 µM.

The same experiment, now with this note: Homo sapiens, HepG2, HepG-2, MTT, mean ± SD of three independent experiments; read-out: Growth inhibition, GI50.
For `O=C(CCl)Nc1nc(-c2ccc(Br)cc2)cs1` [4b], the GI50 came out at 3.92 µM.

On to `O=C(CCl)Nc1nc(-c2cc3ccccc3oc2=O)cs1` [4k], for which the GI50 stood at 14.3 ± 0.28 µM.

`CCOC(=O)c1sc(NC(=O)CCl)nc1C` [4l]: the 50% growth inhibitory concentration (GI50) stood at 29.8 ± 0.34 µM.

In the case of `Nc1nnc(SCC(=O)Nc2nc(-c3ccccc3)cs2)s1` [8a, 2-(5-amino-1,3,4-thiadiazol-2-ylthio)-N-(4-phenylthiazol-2-yl) acetamide], the GI50 amounted to 26.8 ± 0.28 µM.

Regarding `Nc1nnc(SCC(=O)Nc2nc(-c3ccc(Br)cc3)cs2)s1` [8b, 2-(5-amino-1,3,4-thiadiazol-2-ylthio)-N-(4-(4-bromophenyl)thiazol-2-yl) acetamide], the GI50 came to 5.86 ± 0.24 µM.

`Nc1nnc(SCC(=O)Nc2nc(-c3ccc(Cl)cc3)cs2)s1` [8c, 2-(5-amino-1,3,4-thiadiazol-2-ylthio)-N-(4-(4-chlorophenyl)thiazol-2-yl) acetamide]: the GI50 stood at 4.12 ± 0.18 µM.

Regarding `COc1ccc(-c2csc(NC(=O)CSc3nnc(N)s3)n2)cc1` [8d, 2-(5-amino-1,3,4-thiadiazol-2-ylthio)-N-(4-(4-methoxyphenyl)thiazol-2-yl) acetamide], the GI50 amounted to 2.53 ± 0.1 µM.

Consider `Cc1ccc(-c2csc(NC(=O)CSc3nnc(N)s3)n2)cc1` [8e, 2-(5-amino-1,3,4-thiadiazol-2-ylthio)-N-(4-p-tolylthiazol-2-yl) acetamide], for which the GI50 came to 18.3 ± 0.34 µM.

For the compound `Nc1nnc(SCC(=O)Nc2nc(-c3ccc([N+](=O)[O-])cc3)cs2)s1` [8f, 2-(5-amino-1,3,4-thiadiazol-2-ylthio)-N-(4-(4-nitrophenyl)thiazol-2-yl) acetamide], the GI50 amounted to 3.46 ± 0.13 µM.

As to `COc1cccc2c1C(=O)c1c(O)c3c(c(O)c1C2=O)C[C@@](O)(C(=O)CO)C[C@@H]3O[C@H]1C[C@H](N)[C@H](O)[C@H](C)O1` [doxorubicin, reference compound], the GI50 came out at 3.87 ± 0.16 µM.

The test system of the next experiment is human lung carcinoma cell line (A549). The experiment in a line: MTT anti-proliferative assay, A549. It counts as cell-based. Conditions: A549, MTT, mean ± SD of three independent experiments; read-out: Growth inhibition, GI50. The procedure: as §1, §2
With `O=C(CCl)Nc1nc(-c2ccc(Br)cc2)cs1` [4b], the GI50 came out at 2.97 ± 0.19 µM.

The same experiment, now with this note: Homo sapiens, A549, A549, MTT, mean ± SD of three independent experiments; read-out: Growth inhibition, GI50.
In the case of `O=C(CCl)Nc1nc(-c2ccc(Br)cc2)cs1` [4b], the GI50 worked out at 3.86 µM.

Regarding `O=C(CCl)Nc1nc(-c2cc3ccccc3oc2=O)cs1` [4k], the GI50 worked out at 25.3 ± 0.39 µM.

`CCOC(=O)c1sc(NC(=O)CCl)nc1C` [4l]: the GI50 turned out to be 32.9 ± 0.46 µM.

Turning to `Nc1nnc(SCC(=O)Nc2nc(-c3ccccc3)cs2)s1` [8a, 2-(5-amino-1,3,4-thiadiazol-2-ylthio)-N-(4-phenylthiazol-2-yl) acetamide], the GI50 was 36.2 ± 0.39 µM.

Take `Nc1nnc(SCC(=O)Nc2nc(-c3ccc(Br)cc3)cs2)s1` [8b, 2-(5-amino-1,3,4-thiadiazol-2-ylthio)-N-(4-(4-bromophenyl)thiazol-2-yl) acetamide]: the GI50 is 18.4 ± 0.46 µM.

On to `Nc1nnc(SCC(=O)Nc2nc(-c3ccc(Cl)cc3)cs2)s1` [8c, 2-(5-amino-1,3,4-thiadiazol-2-ylthio)-N-(4-(4-chlorophenyl)thiazol-2-yl) acetamide], for which the GI50 was determined as 7.86 ± 0.24 µM.

As for `COc1ccc(-c2csc(NC(=O)CSc3nnc(N)s3)n2)cc1` [8d, 2-(5-amino-1,3,4-thiadiazol-2-ylthio)-N-(4-(4-methoxyphenyl)thiazol-2-yl) acetamide], the GI50 worked out at 2.85 ± 0.18 µM.

As for `Cc1ccc(-c2csc(NC(=O)CSc3nnc(N)s3)n2)cc1` [8e, 2-(5-amino-1,3,4-thiadiazol-2-ylthio)-N-(4-p-tolylthiazol-2-yl) acetamide], the GI50 was 29.8 ± 0.37 µM.

As for `Nc1nnc(SCC(=O)Nc2nc(-c3ccc([N+](=O)[O-])cc3)cs2)s1` [8f, 2-(5-amino-1,3,4-thiadiazol-2-ylthio)-N-(4-(4-nitrophenyl)thiazol-2-yl) acetamide], the GI50 was 4.64 ± 0.23 µM.

For the compound `COc1cccc2c1C(=O)c1c(O)c3c(c(O)c1C2=O)C[C@@](O)(C(=O)CO)C[C@@H]3O[C@H]1C[C@H](N)[C@H](O)[C@H](C)O1` [doxorubicin, reference compound], the GI50 worked out at 3.26 ± 0.24 µM.
